Experimental data reported in ChEMBL document CHEMBL1152872, “Discovery of N-{[1-(propylsulfonyl)-4-pyridin-2-ylpiperidin-4-yl]methyl}benzamides as novel, selective and potent GlyT1 inhibitors” (Bioorg Med Chem Lett, 2009).

Tests used:
[1] = target: T1, Sodium- and chloride-dependent taurine transporter (Homo sapiens, UniProt P31641); assay: Inhibition of taurine transporter; assay type: single protein
T1 sequence (P31641 whole entry): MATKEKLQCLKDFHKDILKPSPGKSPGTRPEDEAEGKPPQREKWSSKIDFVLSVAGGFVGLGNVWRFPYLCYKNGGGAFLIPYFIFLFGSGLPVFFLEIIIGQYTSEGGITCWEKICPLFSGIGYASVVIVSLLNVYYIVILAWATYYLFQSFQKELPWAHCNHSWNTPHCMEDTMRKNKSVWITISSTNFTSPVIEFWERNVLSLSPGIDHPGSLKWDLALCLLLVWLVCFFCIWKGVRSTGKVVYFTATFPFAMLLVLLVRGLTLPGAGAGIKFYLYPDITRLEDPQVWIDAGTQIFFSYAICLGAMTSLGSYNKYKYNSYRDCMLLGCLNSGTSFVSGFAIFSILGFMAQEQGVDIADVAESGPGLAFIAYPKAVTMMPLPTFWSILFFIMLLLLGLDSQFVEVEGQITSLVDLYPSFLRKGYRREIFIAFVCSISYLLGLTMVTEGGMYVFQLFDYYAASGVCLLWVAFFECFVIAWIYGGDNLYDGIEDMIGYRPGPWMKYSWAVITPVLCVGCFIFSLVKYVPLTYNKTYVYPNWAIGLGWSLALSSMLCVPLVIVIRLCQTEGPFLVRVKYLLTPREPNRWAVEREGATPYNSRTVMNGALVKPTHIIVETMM

[2] = target: T2, Sodium- and chloride-dependent glycine transporter 2 (Homo sapiens, UniProt Q9Y345); assay: Inhibition of glycine transporter 2
T2 sequence (Q9Y345 whole entry): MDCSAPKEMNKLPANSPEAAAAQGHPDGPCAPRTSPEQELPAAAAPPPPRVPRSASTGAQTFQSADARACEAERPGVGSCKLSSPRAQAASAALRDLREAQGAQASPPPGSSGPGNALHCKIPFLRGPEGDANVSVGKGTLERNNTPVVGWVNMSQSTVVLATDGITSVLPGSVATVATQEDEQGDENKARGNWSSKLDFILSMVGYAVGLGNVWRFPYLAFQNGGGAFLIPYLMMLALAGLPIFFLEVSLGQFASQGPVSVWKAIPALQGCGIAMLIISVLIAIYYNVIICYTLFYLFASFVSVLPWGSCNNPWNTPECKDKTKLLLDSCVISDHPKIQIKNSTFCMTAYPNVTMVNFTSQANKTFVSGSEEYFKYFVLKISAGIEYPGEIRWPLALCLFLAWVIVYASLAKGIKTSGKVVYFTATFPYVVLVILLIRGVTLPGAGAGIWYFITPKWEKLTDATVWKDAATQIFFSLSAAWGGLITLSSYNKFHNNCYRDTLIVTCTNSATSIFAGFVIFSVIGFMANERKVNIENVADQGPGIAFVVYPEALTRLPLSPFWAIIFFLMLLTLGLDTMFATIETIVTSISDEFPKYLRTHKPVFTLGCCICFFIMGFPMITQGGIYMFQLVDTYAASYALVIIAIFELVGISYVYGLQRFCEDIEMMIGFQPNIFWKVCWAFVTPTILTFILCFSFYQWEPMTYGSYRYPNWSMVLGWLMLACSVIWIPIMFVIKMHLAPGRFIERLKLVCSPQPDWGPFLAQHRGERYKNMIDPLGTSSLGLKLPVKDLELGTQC

[3] = target: T3, Sodium- and chloride-dependent glycine transporter 1 (Homo sapiens, UniProt P48067); assay: Inhibition of human glycine transporter 1
T3 sequence (P48067 whole entry): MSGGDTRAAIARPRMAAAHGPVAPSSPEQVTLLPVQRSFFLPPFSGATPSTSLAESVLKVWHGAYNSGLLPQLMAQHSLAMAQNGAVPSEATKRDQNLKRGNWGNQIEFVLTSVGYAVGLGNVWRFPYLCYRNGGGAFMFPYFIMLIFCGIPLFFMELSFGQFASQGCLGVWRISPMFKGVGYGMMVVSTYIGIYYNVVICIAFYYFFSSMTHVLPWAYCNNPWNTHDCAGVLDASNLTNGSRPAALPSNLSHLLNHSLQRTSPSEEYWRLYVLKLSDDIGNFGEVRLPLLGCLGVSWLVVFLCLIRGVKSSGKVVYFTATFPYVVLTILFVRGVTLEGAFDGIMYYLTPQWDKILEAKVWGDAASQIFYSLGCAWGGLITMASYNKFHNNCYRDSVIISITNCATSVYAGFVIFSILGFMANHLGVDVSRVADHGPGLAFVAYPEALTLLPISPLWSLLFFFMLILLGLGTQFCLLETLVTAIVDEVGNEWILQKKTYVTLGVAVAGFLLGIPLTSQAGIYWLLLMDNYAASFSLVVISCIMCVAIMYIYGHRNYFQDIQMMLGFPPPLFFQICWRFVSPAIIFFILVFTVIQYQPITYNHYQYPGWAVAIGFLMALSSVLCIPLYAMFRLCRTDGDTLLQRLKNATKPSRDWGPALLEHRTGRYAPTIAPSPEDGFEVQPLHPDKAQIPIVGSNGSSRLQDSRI

[4] = Solubility in water; assay type: physicochemical
[5] = target: T3, Sodium- and chloride-dependent glycine transporter 1; assay: Inhibition of glycine transporter 1 by HTS assay

Compound | IC50 [1] [nM] | IC50 [2] [nM] | IC50 [3] [nM] | further results
CCCS(=O)(=O)N1CCC(c2ccccn2)([C@H](C)NC(=O)c2ccccc2OC(F)(F)F)CC1 | > 30000 | > 30000 | 17.7 | 
CCCS(=O)(=O)N1CCC(c2ccccn2)([C@H](C)NC(=O)c2ccc(Cl)cc2Cl)CC1 | > 30000 | > 30000 | 3 | 
CCCS(=O)(=O)N1CCC(CNC(=O)c2ccc(Cl)cc2Cl)(c2cccnc2)CC1 |  |  | 69.3 | 
CCCS(=O)(=O)N1CCC(CNC(=O)c2ccc(Cl)cc2Cl)(c2ccncc2)CC1 |  |  | 79.3 | 
CCCS(=O)(=O)N1CCC(CNC(=O)c2ccccc2C)(C2CCCCN2C)CC1 (stereo unspecified) |  |  | 148 | 
CCCS(=O)(=O)N1CCC(CNC(=O)c2ccccc2OC(F)(F)F)(C2CCCCN2C)CC1 (stereo unspecified) |  |  | 21.2 | 
CCCS(=O)(=O)N1CCC(c2ccccn2)([C@@H](C)NC(=O)c2ccccc2OC(F)(F)F)CC1 |  |  | 2590 | 
CCCS(=O)(=O)N1CCC(c2ccccn2)([C@@H](C)NC(=O)c2ccc(Cl)cc2Cl)CC1 |  |  | 661 | 
CCCS(=O)(=O)N1CCC(c2ccccn2)([C@@H](C)NC(=O)c2cc(F)cc(F)c2Cl)CC1 |  |  | 576 | 
CCCS(=O)(=O)N1CCC(CNC(=O)c2ccccc2Cl)(C2CCCCN2C)CC1 (stereo unspecified) |  |  | 58.9 | 
CCCS(=O)(=O)N1CCC(CNC(=O)c2cc(F)cc(F)c2Cl)(C2CCCCN2C)CC1 (stereo unspecified) |  |  | 43.1 | 
CCCS(=O)(=O)N1CCC(CNC(=O)c2ccccc2)(c2cccc(C)n2)CC1 | > 30000 | > 30000 | 54.7 | 
CCCS(=O)(=O)N1CCC(CNC(=O)c2c(Cl)ccc(Cl)c2F)(c2ccccn2)CC1.Cl |  |  |  | solubility [4]: 570 µg/mL
CCCS(=O)(=O)N1CCC(CNC(=O)c2ccc(Cl)cc2Cl)(c2cccc(OC)n2)CC1 | > 30000 | > 30000 | 7.4 | 
CCCS(=O)(=O)N1CCC(CNC(=O)c2ccccc2)(c2cccc(N3CCOCC3)n2)CC1 |  |  | > 5000 | 
CCCS(=O)(=O)N1CCC(c2ccccc2)([C@H](C)NC(=O)c2c(N)cccc2Cl)CC1 |  |  |  | IC50 [5]: 2.6 nM
CCCS(=O)(=O)N1CCC(CNC(=O)c2ccccc2F)(c2ccccn2)CC1 | > 30000 | > 30000 | 49.4 | 
CCCS(=O)(=O)N1CCC(CNC(=O)c2ccccc2Cl)(c2cccc(N3CCOCC3)n2)CC1 |  |  | 482 | 
CCCS(=O)(=O)N1CCC(CNC(=O)c2ccc(Cl)cc2Cl)(c2cccc(N3CCOCC3)n2)CC1 |  |  | 412 | 
CCCS(=O)(=O)N1CCC(CNC(=O)c2c(Cl)cccc2Cl)(c2ccccn2)CC1 | > 30000 | > 30000 | 6.6 | 
CCCS(=O)(=O)N1CCC(CNC(=O)c2c(N)cccc2Cl)(c2ccccn2)CC1 | > 30000 | > 30000 | 6.9 | 
CCCS(=O)(=O)N1CCC(CNC(=O)c2ccccc2OC)(c2ccccc2)CC1 |  |  |  | IC50 [5]: 130 nM
